Legend:
bedstraw = experiment: Test B pre/postemergence bedstraw; format: in vivo, Galium aparine
In short: (§1)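 Response is a visual 0-to-10 score relative to untreated plants, where 0 means no effect and 10 means complete control, taken twelve to sixteen days after application. Treatments went onto soil at planting and onto foliage of 1- to 4-leaf plants, using a surfactant-containing non-phytotoxic solvent.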

blackgrass = experiment: Test B pre/postemergence blackgrass; format: in vivo, Alopecurus myosuroides
In short: as §1

surinam grass = experiment: Test B pre/postemergence surinam grass; format: in vivo, Brachiaria decumbens
In short: as §1

cocklebur = experiment: Test B pre/postemergence cocklebur; format: in vivo, Xanthium strumarium
In short: as §1

corn = experiment: Test B pre/postemergence corn; format: in vivo, Zea mays
In short: as §1

crabgrass = experiment: Test B pre/postemergence crabgrass; format: in vivo, Digitaria sanguinalis
In short: as §1

pigweed = experiment: Test B pre/postemergence pigweed; format: in vivo, Amaranthus retroflexus
In short: as §1

rape = experiment: Test B pre/postemergence rape; format: in vivo, Brassica napus
In short: as §1

soybean = experiment: Test B pre/postemergence soybean; format: in vivo, Glycine max
In short: as §1

sugar beet = experiment: Test B pre/postemergence sugar beet; format: in vivo, Beta vulgaris; settings: for Plant response rating, Sugarbeets: Rate 250 g/ha
In short: as §1

velvetleaf = experiment: Test B pre/postemergence velvetleaf; format: in vivo, Abutilon theophrasti; settings: for Plant response rating, Velvetleaf: Rate 250 g/ha
In short: as §1

wheat = experiment: Test B pre/postemergence wheat; format: in vivo, Triticum aestivum; settings: for Plant response rating, Wheat: Rate 250 g/ha
In short: as §1

wild oat = experiment: Test B pre/postemergence wild oat; format: in vivo, Avena fatua; settings: for Plant response rating, Wild oats: Rate 250 g/ha
In short: as §1

purple nutsedge = experiment: Test B pre/postemergence purple nutsedge; format: in vivo, Cyperus rotundus
In short: as §1

smallflower flatsedge = experiment: Test B flood test smallflower flatsedge; format: in vivo, Cyperus difformis
In short: (§2)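 Each value is a visual injury score relative to controls, with 10 meaning complete control and 0 no effect. Evaluation took place twelve to sixteen days after the 2-leaf-stage plants were treated and kept in the greenhouse.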

bamyardgrass = experiment: Test B flood test barnyardgrass; format: in vivo, Echinochloa crus-galli
In short: as §2

[1] = Postemergence, Rate 62 g/ha, scale 0 to 10, 0 is no effect, 10 is complete control
[2] = Postemergence, Rate 250 g/ha, scale 0 to 10, 0 no effect, 10 complete control
[3] = Preemergence, Rate 62 g/ha, scale 0 to 10 (0 no effect, 10 complete control)
[4] = Preemergence, Rate 125 g/ha, scale 0 to 10 (0 no effect, 10 complete control)
[5] = Preemergence, Rate 250 g/ha, scale of 0 to 10 where 0 is no effect and 10 is complete control
[6] = Rate 125 g/ha, Postemergence, scale 0 to 10, 0 no effect, 10 complete control
[7] = Rate 500 g/ha, Postemergence, scale 0 to 10, 0 no effect, 10 complete control
[8] = Postemergence, Rate 125 g/ha, scale of 0 to 10 where 0 is no effect and 10 is complete control
[9] = Rate 62 g/ha, Postemergence, scale of 0 to 10 where 0 is no effect and 10 is complete control
[10] = Rate 250 g/ha, Postemergence, scale 0 to 10, 0 is no effect, 10 is complete control
[11] = Preemergence, Rate 125 g/ha, 0 is no effect, 10 is complete control
[12] = Preemergence, scale of 0 to 10 where 0 is no effect and 10 is complete control
[13] = Postemergence, scale 0 to 10, 0 is no effect, 10 is complete control
[14] = Rate 500 g/ha, listed under Postemergence (flood test species), scale 0 to 10, 0 no effect, 10 complete control

CCc1noc(CC)c1-n1c(=O)on(C(=O)N(c2ccc(F)cc2)C(C)C)c1=O [Compound 102]
2: Plant response rating, Blackgrass (blackgrass; [5]) | Corn plant response rating (corn; [7])
3: Bedstraw plant response rating (bedstraw; [7]) | Velvetleaf plant response rating (velvetleaf; [7])
0: Bedstraw plant response rating (bedstraw; [1]) | Bedstraw plant response rating (bedstraw; [2]) | Bedstraw plant response rating (bedstraw; [3]) | Plant response rating, Bedstraw (bedstraw; [4]) | Plant response rating, Bedstraw (bedstraw; [5]) | Bedstraw plant response rating (bedstraw; [6]) | Blackgrass plant response rating (blackgrass; [8]) | Blackgrass plant response rating (blackgrass; [2]) | Blackgrass plant response rating (blackgrass; [3]) | Plant response rating, Blackgrass (blackgrass; [4]) | Blackgrass plant response rating (blackgrass; [9]) | Blackgrass plant response rating (blackgrass; [7]) | B. signalgrass plant response rating (surinam grass; [1]) | B. signalgrass plant response rating (surinam grass; [2]) | B. signalgrass plant response rating (surinam grass; [3]) | Plant response rating, B. signalgrass (surinam grass; [4]) | Plant response rating, B. signalgrass (surinam grass; [5]) | B. signalgrass plant response rating (surinam grass; [6]) | B. signalgrass plant response rating (surinam grass; Rate 500 g/ha, Postemergence, scale of 0 to 10 where 0 is no effect and 10 is complete control) | Cocklebur plant response rating (cocklebur; [8]) | Cocklebur plant response rating (cocklebur; [2]) | Cocklebur plant response rating (cocklebur; [3]) | Plant response rating, Cocklebur (cocklebur; [4]) | Plant response rating, Cocklebur (cocklebur; [5]) | Cocklebur plant response rating (cocklebur; [9]) | Cocklebur plant response rating (cocklebur; [7]) | Corn plant response rating (corn; [8]) | Corn plant response rating (corn; [2]) | Corn plant response rating (corn; [3]) | Plant response rating, Corn (corn; [4]) | Plant response rating, Corn (corn; [5]) | Corn plant response rating (corn; [9]) | Crabgrass plant response rating (crabgrass; [8]) | Crabgrass plant response rating (crabgrass; [2]) | Crabgrass plant response rating (crabgrass; [3]) | Plant response rating, Crabgrass (crabgrass; [4]) | Plant response rating, Crabgrass (crabgrass; [5]) | Crabgrass plant response rating (crabgrass; [9]) | Redroot pigweed plant response rating (pigweed; [8]) | Redroot pigweed plant response rating (pigweed; [3]) | Plant response rating, Redroot pigweed (pigweed; [4]) | Plant response rating, Redroot pigweed (pigweed; [5]) | Redroot pigweed plant response rating (pigweed; [9]) | Plant response rating, Redroot pigweed (pigweed; [10]) | Redroot pigweed plant response rating (pigweed; [7]) | Rape plant response rating (rape; [8]) | Rape plant response rating (rape; [2]) | Rape plant response rating (rape; [3]) | Plant response rating, Rape (rape; [4]) | Plant response rating, Rape (rape; [5]) | Rape plant response rating (rape; [9]) | Rape plant response rating (rape; [7]) | Soybean plant response rating (soybean; [8]) | Soybean plant response rating (soybean; [3]) | Plant response rating, Soybean (soybean; [4]) | Plant response rating, Soybean (soybean; [5]) | Soybean plant response rating (soybean; [9]) | Plant response rating, Soybean (soybean; [10]) | Soybean plant response rating (soybean; [7]) | Sugarbeets plant response rating (sugar beet; [8]) | Sugarbeets plant response rating (sugar beet; [3]) | Sugarbeets plant response rating (0 to 10 scale) (sugar beet; [11]) | Plant response rating, Sugarbeets (sugar beet; [12]) | Sugarbeets plant response rating (sugar beet; [9]) | Plant response rating, Sugarbeets (sugar beet; [13]) | Sugarbeets plant response rating (sugar beet; [7]) | Velvetleaf plant response rating (velvetleaf; [8]) | Velvetleaf plant response rating (velvetleaf; [3]) | Velvetleaf plant response rating (0 to 10 scale) (velvetleaf; [11]) | Plant response rating, Velvetleaf (velvetleaf; [12]) | Velvetleaf plant response rating (velvetleaf; [9]) | Plant response rating, Velvetleaf (velvetleaf; [13]) | Wheat plant response rating (wheat; [8]) | Wheat plant response rating (wheat; [3]) | Wheat plant response rating (0 to 10 scale) (wheat; [11]) | Plant response rating, Wheat (wheat; [12]) | Wheat plant response rating (wheat; [9]) | Plant response rating, Wheat (wheat; [13]) | Wheat plant response rating (wheat; [7]) | Wild oats plant response rating (wild oat; [8]) | Wild oats plant response rating (wild oat; [3]) | Wild oats plant response rating (0 to 10 scale) (wild oat; [11]) | Plant response rating, Wild oats (wild oat; [12]) | Wild oats plant response rating (wild oat; [9]) | Plant response rating, Wild oats (wild oat; [13]) | Wild oats plant response rating (wild oat; [7]) | Nutsedge plant response rating (purple nutsedge; [8]) | Nutsedge plant response rating (purple nutsedge; [2]) | Nutsedge plant response rating (purple nutsedge; [3]) | Plant response rating, Nutsedge (purple nutsedge; [4]) | Plant response rating, Nutsedge (purple nutsedge; [5]) | Nutsedge plant response rating (purple nutsedge; [9]) | Nutsedge plant response rating (purple nutsedge; [7]) | S. Flatsedge plant response rating (smallflower flatsedge; Postemergence (flood test species), Rate 125 g/ha, scale of 0 to 10 where 0 is no effect and 10 is complete control) | S. Flatsedge plant response rating (smallflower flatsedge; Rate 62 g/ha, Postemergence section, flood test species, scale of 0 to 10 where 0 is no effect and 10 is complete control) | Plant response rating, S. Flatsedge (smallflower flatsedge; Rate 250 g/ha, Postemergence (flood test), scale 0 to 10, 0 is no effect, 10 is complete control) | S. Flatsedge plant response rating (smallflower flatsedge; [14]) | Barnyardgrass plant response rating (bamyardgrass; [1]) | Barnyardgrass plant response rating (bamyardgrass; Rate 125 g/ha, Postemergence section (flood test species), scale 0 to 10, 0 no effect, 10 complete control) | Barnyardgrass plant response rating (bamyardgrass; [14]) | Barnyardgrass plant response rating (bamyardgrass; flood test, listed under Postemergence, Rate 250 g/ha, scale 0 to 10, 0 no effect, 10 complete control)
5: Crabgrass plant response rating (crabgrass; [7])
